# Laboratory results reported in US12264134B2 (Merck Sharp & Dohme LLC, priority 2018, dated 2025).
# Columns and labels:
# [1] = target: T1, IDO1 (Homo sapiens, UniProt P14902); assay: IDO1 Cellular Assay in HeLa Cells Stimulated with IFNγ; type: cell-based; settings: read-out: HeLa Cell Potency, IC50
# [2] = target: T1, IDO1; assay: IDO1 Human Whole blood Assay; type: cell-based; set-up: Human whole blood was drawn in sodium heparin coated tubes from healthy internal donors; from tissue; host or cells: human whole blood from healthy donors, stimulated with LPS and IFNγ; settings: LPS and IFNγ stimulated, 18 h, read-out: Human Whole Blood Potency, IC50
# Summary of the method: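 Heparinized healthy-donor human whole blood was preincubated 15 min with compound, then stimulated with LPS and IFNγ (100 ng/mL final) for 18 h at 37 °C. Plasma kynurenine was quantified by LC/MS/MS against a D6-kynurenine internal standard, and IC50s came from 4-parameter sigmoidal fits.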
# T1 sequence (P14902 whole entry): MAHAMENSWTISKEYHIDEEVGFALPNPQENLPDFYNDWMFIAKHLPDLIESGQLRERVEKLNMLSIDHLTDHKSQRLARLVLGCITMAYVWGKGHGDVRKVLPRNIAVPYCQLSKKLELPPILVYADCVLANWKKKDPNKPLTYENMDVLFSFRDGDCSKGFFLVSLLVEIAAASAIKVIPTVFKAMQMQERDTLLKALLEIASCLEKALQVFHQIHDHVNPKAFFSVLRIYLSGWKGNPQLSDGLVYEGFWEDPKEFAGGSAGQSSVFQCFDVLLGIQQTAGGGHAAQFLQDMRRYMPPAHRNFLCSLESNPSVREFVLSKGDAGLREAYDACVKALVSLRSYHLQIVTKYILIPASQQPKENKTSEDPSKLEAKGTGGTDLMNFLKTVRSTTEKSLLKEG
SMILES,IC50 [1] [µM],IC50 [2] [µM]
"Cc1cccc(N2CCN(C(=O)Cn3nc(C(=O)N4C[C@@H](C)N(C)[C@@H](C)C4)c4c3C[C@H]3C[C@@H]43)CC2)c1C [Example 235, 1-[4-(2,3-dimethylphenyl)piperazin-1-yl]-2-{(3bR,4aR)-3-[(3R,5S)-3,4,5-trimethylpiperazine-1-carbonyl]-3b,4,4a,5-tetrahydro-1H-cyclopropa[3,4]cyclopenta[1,2-c]pyrazol-1-yl}ethan-1-one]",0.0031,0.339
"Cc1cccc(N2CCN(C(=O)Cn3nc(C(=O)N4CCC(O)(CN)CC4)c4c3C[C@H]3C[C@@H]43)CC2)c1C [Example 238, 2-{(3bR,4aR)-3-[4-(aminomethyl)-4-hydroxypiperidine-1-carbonyl]-3b,4,4a,5-tetrahydro-1H-cyclopropa[3,4]cyclopenta[1,2-c]pyrazol-1-yl}-1-[4-(2,3-dimethylphenyl)piperazin-1-yl]ethan-1-one]",0.00843,5.05
Cc1cccc(N2CCN(C(=O)Cn3nc(C(=O)N4CCN(CCO)CC4)c4c3C[C@H]3C[C@@H]43)CC2)c1C [Example 247],0.00091,0.091
"Cc1cccc(N2CCN(C(=O)Cn3nc(C(=O)N4CCC(O)(CF)CC4)c4c3C[C@H]3C[C@@H]43)CC2)c1C [Example 276, 1-[4-(2,3-dimethylphenyl)piperazin-1-yl]-2-{(3bR,4aR)-3-[4-(fluoromethyl)-4-hydroxypiperidine-1-carbonyl]-3b,4,4a,5-tetrahydro-1H-cyclopropa[3,4]cyclopenta[1,2-c]pyrazol-1-yl}ethan-1-one]",0.00203,0.109
"Cc1cccc(N2CCN(C(=O)Cn3nc(C(=O)N4CC[C@@H](O)[C@H](F)C4)c4c3C[C@H]3C[C@@H]43)CC2)c1C [Example 279, 1-[4-(2,3-dimethylphenyl)piperazin-1-yl]-2-{(3bR,4aR)-3-[(3R,4R)-3-fluoro-4-hydroxypiperidine-1-carbonyl]-3b,4,4a,5-tetrahydro-1H-cyclopropa[3,4]cyclopenta[1,2-c]pyrazol-1-yl}ethan-1-one]",0.00059,0.07
"Cc1cccc(N2CCN(C(=O)Cn3nc(C(=O)N4CC[C@H](O)[C@H](C)C4)c4c3C[C@H]3C[C@@H]43)CC2)c1C [Example 280, 1-[4-(2,3-dimethylphenyl)piperazin-1-yl]-2-{(3bR,4aR)-3-[(3R,4S)-4-hydroxy-3-methylpiperidine-1-carbonyl]-3b,4,4a,5-tetrahydro-1H-cyclopropa[3,4]cyclopenta[1,2-c]pyrazol-1-yl}ethan-1-one]",0.00079,0.127
"Cc1cccc(N2CCN(C(=O)Cn3nc(C(=O)N4CC[C@@H](O)[C@@H](C)C4)c4c3C[C@H]3C[C@@H]43)CC2)c1C [Example 281, 1-[4-(2,3-dimethylphenyl)piperazin-1-yl]-2-{(3bR,4aR)-3-[(3S,4R)-4-hydroxy-3-methylpiperidine-1-carbonyl]-3b,4,4a,5-tetrahydro-1H-cyclopropa[3,4]cyclopenta[1,2-c]pyrazol-1-yl}ethan-1-one]",0.00097,0.294
"Cc1cccc(N2CCN(C(=O)Cn3nc(C(=O)N4C[C@@H](C)O[C@@H](C)C4)c4c3C[C@H]3C[C@@H]43)CC2)c1C [Example 283, 2-{(3bR,4aR)-3-[(2R,6S)-2,6-dimethylmorpholine-4-carbonyl]-3b,4,4a,5-tetrahydro-1H-cyclopropa[3,4]cyclopenta[1,2-c]pyrazol-1-yl}-1-[4-(2,3-dimethylphenyl)piperazine-1-yl]ethan-1-one]",0.00113,0.163
"Cc1cccc(N2CCN(C(=O)Cn3nc(C(=O)N4CC[C@@H](O)[C@H](C)C4)c4c3C[C@H]3C[C@@H]43)CC2)c1C [Example 284, 1-[4-(2,3-dimethylphenyl)piperazin-1-yl]-2-{(3bR,4aR)-3-[(3R,4R)-4-hydroxy-3-methylpiperidine-1-carbonyl]-3b,4,4a,5-tetrahydro-1H-cyclopropa[3,4]cyclopenta[1,2-c]pyrazol-1-yl}ethan-1-one]",0.00114,0.403
"Cc1cccc(N2CCN(C(=O)Cn3nc(C(=O)N4CCN(C(=O)CO)CC4)c4c3C[C@H]3C[C@@H]43)CC2)c1C [Example 285, 1-[4-(2,3-dimethylphenyl)piperazin-1-yl]-2-{(3bR,4aR)-3-[4-(hydroxyacetyl)piperazine-1-carbonyl]-3b,4,4a,5-tetrahydro-1H-cyclopropa[3,4]cyclopenta[1,2-c]pyrazol-1-yl}ethan-1-one]",0.00146,0.058
"Cc1cccc(N2CCN(C(=O)Cn3nc(C(=O)N4CCC(F)(CO)CC4)c4c3C[C@H]3C[C@@H]43)CC2)c1C [Example 286, 1-[4-(2,3-dimethylphenyl)piperazin-1-yl]-2-{(3bR,4aR)-3-[4-fluoro-4-(hydroxymethyl)piperidine-1-carbonyl]-3b,4,4a,5-tetrahydro-1H-cyclopropa[3,4]cyclopenta[1,2-c]pyrazol-1-yl}ethan-1-one]",0.00152,0.044
"Cc1cccc(N2CCN(C(=O)Cn3nc(C(=O)N4CC[C@@H](O)[C@@H](F)C4)c4c3C[C@H]3C[C@@H]43)CC2)c1C [Example 288, 1-[4-(2,3-dimethylphenyl)piperazin-1-yl]-2-{(3bR,4aR)-3-[(3S,4R)-3-fluoro-4-hydroxypiperidine-1-carbonyl]-3b,4,4a,5-tetrahydro-1H-cyclopropa[3,4]cyclopenta[1,2-c]pyrazol-1-yl}ethan-1-one]",0.00171,0.1
"Cc1cccc(N2CCN(C(=O)Cn3nc(C(=O)N4CC[C@H](O)[C@H](F)C4)c4c3C[C@H]3C[C@@H]43)CC2)c1C [Example 289, 1-[4-(2,3-dimethylphenyl)piperazin-1-yl]-2-{(3bR,4aR)-3-[(3R,4S)-3-fluoro-4-hydroxypiperidine-1-carbonyl]-3b,4,4a,5-tetrahydro-1H-cyclopropa[3,4]cyclopenta[1,2-c]pyrazol-1-yl}ethan-1-one]",0.00195,0.18
"Cc1cccc(N2CCN(C(=O)Cn3nc(C(=O)N4CC[C@@H](O)C[C@@H]4C)c4c3C[C@H]3C[C@@H]43)CC2)c1C [Example 290, 1-[4-(2,3-dimethylphenyl)piperazin-1-yl]-2-{(3bR,4aR)-3-[(2S,4R)-4-hydroxy-2-methylpiperidine-1-carbonyl]-3b,4,4a,5-tetrahydro-1H-cyclopropa[3,4]cyclopenta[1,2-c]pyrazol-1-yl}ethan-1-one]",0.00203,0.771
"Cc1cccc(N2CCN(C(=O)Cn3nc(C(=O)N4CC[C@H](O)[C@@H](F)C4)c4c3C[C@H]3C[C@@H]43)CC2)c1C [Example 291, 1-[4-(2,3-dimethylphenyl)piperazin-1-yl]-2-{(3bR,4aR)-3-[(3S,4S)-3-fluoro-4-hydroxypiperidine-1-carbonyl]-3b,4,4a,5-tetrahydro-1H-cyclopropa[3,4]cyclopenta[1,2-c]pyrazol-1-yl}ethan-1-one]",0.00279,0.212
"Cc1cccc(N2CCN(C(=O)Cn3nc(C(=O)N4CCC(F)(CO)CC4)c4c3CCC4)CC2)c1C [Example 293, 1-[4-(2,3-dimethylphenyl)piperazin-1-yl]-2-{3-[4-fluoro-4-(hydroxymethyl)piperidine-1-carbonyl]-5,6-dihydrocyclopenta[c]pyrazol-1(4H)-yl}ethan-1-one]",0.00546,0.178
"Cc1cccc(N2CCN(C(=O)Cn3nc(C(=O)N4C[C@@H](C)O[C@@H](C)C4)c4c3[C@H]3C[C@H]3C4)CC2)c1C [Example 294, 2-{(4aS,5aS)-3-[(2R,6S)-2,6-dimethylmorpholine-4-carbonyl]-4,4a,5,5a-tetahydro-1H-cyclopropa[4,5]cyclopenta[1,2-c]pyrazol-1-yl}-1-[4-(2,3-dimethylphenyl)piperazin-1-yl]ethan-1-one]",0.00559,1.45
"Cc1cccc(N2CCN(C(=O)Cn3nc(C(=O)N4C[C@@H](C)O[C@@H](C)C4)c4c3[C@@H]3C[C@@H]3C4)CC2)c1C [Example 296, 2-{(4aR,5aR)-3-[(2R,6S)-2,6-dimethylmorpholine-4-carbonyl]-4,4a,5,5a-tetrahydro-1H-cyclopropa[4,5]cyclopenta[1,2-c]pyrazol-1-yl}-1-[4-(2,3-dimethylphenyl)piperazin-1-yl]ethan-1-one]",0.00799,0.543
"Cc1cccc(N2CCN(C(=O)Cn3nc(C(=O)N4CCC5(CO)CC4C5)c4c3CCC4)CC2)c1C [Example 297, 1-[4-(2,3-dimethylphenyl)piperazin-1-yl]-2-{3-[5-(hydroxymethyl)-2-azabicyclo[3.1.1]heptane-2-carbonyl]-5,6-dihydrocyclopenta[c]pyrazol-1(4H)-yl}ethan-1-one]",0.0113,1.22
"Cc1c(Cl)cccc1N1CCN(C(=O)Cn2nc(C(=O)N3CCC(F)(CN)CC3)c3c2C[C@H]2C[C@@H]32)C2(CC2)C1 [Example 314, 2-{(3bR,4aR)-3-[4-(aminomethyl)-4-fluoropiperidine-1-carbonyl]-3b,4,4a,5-tetrahydro-1H-cyclopropa[3,4]cyclopenta[1,2-c]pyrazol-1-yl}-1-[7-(3-chloro-2-methylphenyl)-4,7-diazaspiro[2.5]octan-4-yl]ethan-1-one]",0.00488,0.846
"Cc1c(Cl)cccc1N1CCN(C(=O)Cn2nc(C(=O)N3CC[C@H](N)[C@@H](F)C3)c3c2C[C@H]2C[C@@H]32)C2(CC2)C1 [Example 315, 2-{(3bR,4aR)-3-[(3S,4S)-4-amino-3-fluoropiperidine-1-carbonyl]-3b,4,4a,5-tetrahydro-1H-cyclopropa[3,4]cyclopenta[1,2-c]pyrazol-1-yl}-1-[7-(3-chloro-2-methylphenyl)-4,7-diazaspiro[2.5]octan-4-yl]ethan-1-one]",0.00321,0.272
